# Assay results: PMC6853638, “TMC1 is an essential component of a leak channel that modulates tonotopy and excitability of auditory hair cells in mice” (eLife, 2019)
# Where a chain is given by its changes, count along the chain named. Several values for one entry are separate records, joined by “and”; a condition that tells them apart may be missing. Equal values may be shown once.
# Tests used:
# [1] = molecular target: T1, cysteine-substituted TMC1 constructs (Mus musculus, UniProt Q8R4P5, D528C); test: Background current before and after MTSET treatment in Tmc1-knockout OHCs expressing cysteine-substituted TMC1; format: cell-based; details: Tmc1-knockout OHCs expressing TMC1-D528C, individual cells
# T1 construct: control full-length TMC1 (TMC1_WT); expressed in transfected cells; host or cells: Tmc1-knockout mouse OHCs, injectoporation
# T1 sequence (Q8R4P5 1-757 D528C): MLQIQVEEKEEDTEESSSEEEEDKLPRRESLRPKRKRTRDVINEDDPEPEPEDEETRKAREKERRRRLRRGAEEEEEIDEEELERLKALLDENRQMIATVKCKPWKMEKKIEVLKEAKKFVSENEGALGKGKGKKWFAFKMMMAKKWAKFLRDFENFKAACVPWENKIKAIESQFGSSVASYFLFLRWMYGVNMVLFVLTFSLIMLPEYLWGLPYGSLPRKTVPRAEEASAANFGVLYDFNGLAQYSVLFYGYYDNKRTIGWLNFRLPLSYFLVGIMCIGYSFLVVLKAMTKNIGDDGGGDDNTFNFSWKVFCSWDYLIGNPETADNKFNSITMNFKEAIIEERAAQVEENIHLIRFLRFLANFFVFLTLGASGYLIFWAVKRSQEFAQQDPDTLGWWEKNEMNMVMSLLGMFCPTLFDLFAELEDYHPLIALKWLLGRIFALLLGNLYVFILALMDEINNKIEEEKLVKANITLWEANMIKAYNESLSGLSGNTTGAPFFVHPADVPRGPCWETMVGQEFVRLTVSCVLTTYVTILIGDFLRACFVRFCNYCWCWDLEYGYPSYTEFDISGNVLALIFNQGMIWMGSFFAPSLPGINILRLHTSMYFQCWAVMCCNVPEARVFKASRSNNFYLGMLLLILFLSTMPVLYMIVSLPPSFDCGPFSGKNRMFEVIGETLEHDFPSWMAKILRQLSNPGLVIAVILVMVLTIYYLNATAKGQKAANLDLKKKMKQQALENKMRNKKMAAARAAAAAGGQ
# Procedure: (§1) Mouse Tmc1 and Tmc2 cDNAs were cloned into CMV-Script and pCDNA3.1- vectors, respectively. To obtain the Tmc1-deafness vector and amino-acid-substituted Tmc1 constructs, specific primers were designed and used for PCR (Supplementary File 1). […] In brief, the organ of Corti was isolated from P3 mice and cut into three pieces in Dulbecco’s modified Eagle’s medium/F12 with 1.5 μg/ml ampicillin. For electroporation, a glass pipette (2 μm tip diameter) was used to deliver cDNA plasmids (0.2 μg/μl in 1 × Hanks' balanced salt solution) to hair cells in the sensory epithelium. EGFP was used as an indicator for the selection of transfected hair cells. A series of three pulses at 60 V lasting 15 ms at 1 s intervals was applied to cochlear tissues by an electroporator (ECM Gemini X2, BTX, CA). The cochlear tissues were cultured for 1 day in vitro and then used for electrophysiological recording.
# (§2) All experiments were performed at room temperature (20–25°C). Briefly, the basilar membrane with hair cells was acutely dissected from neonatal mice. […] The acutely isolated or cultured basilar membrane was used for electrophysiological recording within 1 h. […] Hair cells were recorded with a patch-clamp amplifier (EPC 10 USB and Patchmaster software, HEKA Elektronik, Lambrecht/Pfalz, Germany).
# (§3) The sampling rate was 1 kHz for leak current recording, 50 kHz for the IV protocol and current-clamp recording, and 100 kHz for unitary channel recording. The voltage-clamp used a –70 mV holding potential, and the current-clamp was held at 0 pA. Only recordings with a current baseline <20 pA in NMDG solution were used for statistical analysis.
# [2] = molecular target: T2, cysteine-substituted TMC1 constructs (Mus musculus, UniProt Q8R4P5, D569C); test: as above; format: cell-based; details: Tmc1-knockout OHCs expressing TMC1-D569C, individual cells
# T2 construct: control full-length TMC1 (TMC1_WT); expressed in transfected cells; host or cells: Tmc1-knockout mouse OHCs, injectoporation
# T2 sequence (Q8R4P5 1-757 D569C): T1 sequence (Q8R4P5 1-757 D528C) with C528D, D569C
# Procedure: as §1, §2, §3
# TMC1-M412C [3] = molecular target: T3, TMC1-M412C (Mus musculus, UniProt Q8R4P5, M412C); test: MET current under MTSET treatment in Tmc1;Tmc2 double-knockout OHCs expressing TMC1-M412C; format: cell-based
# T3 construct: control full-length TMC1 (TMC1_WT); expressed in transfected cells; host or cells: Tmc1;Tmc2 double-knockout mouse OHCs (P1 + 3 DIV), injectoporation
# T3 sequence (Q8R4P5 whole entry M412C): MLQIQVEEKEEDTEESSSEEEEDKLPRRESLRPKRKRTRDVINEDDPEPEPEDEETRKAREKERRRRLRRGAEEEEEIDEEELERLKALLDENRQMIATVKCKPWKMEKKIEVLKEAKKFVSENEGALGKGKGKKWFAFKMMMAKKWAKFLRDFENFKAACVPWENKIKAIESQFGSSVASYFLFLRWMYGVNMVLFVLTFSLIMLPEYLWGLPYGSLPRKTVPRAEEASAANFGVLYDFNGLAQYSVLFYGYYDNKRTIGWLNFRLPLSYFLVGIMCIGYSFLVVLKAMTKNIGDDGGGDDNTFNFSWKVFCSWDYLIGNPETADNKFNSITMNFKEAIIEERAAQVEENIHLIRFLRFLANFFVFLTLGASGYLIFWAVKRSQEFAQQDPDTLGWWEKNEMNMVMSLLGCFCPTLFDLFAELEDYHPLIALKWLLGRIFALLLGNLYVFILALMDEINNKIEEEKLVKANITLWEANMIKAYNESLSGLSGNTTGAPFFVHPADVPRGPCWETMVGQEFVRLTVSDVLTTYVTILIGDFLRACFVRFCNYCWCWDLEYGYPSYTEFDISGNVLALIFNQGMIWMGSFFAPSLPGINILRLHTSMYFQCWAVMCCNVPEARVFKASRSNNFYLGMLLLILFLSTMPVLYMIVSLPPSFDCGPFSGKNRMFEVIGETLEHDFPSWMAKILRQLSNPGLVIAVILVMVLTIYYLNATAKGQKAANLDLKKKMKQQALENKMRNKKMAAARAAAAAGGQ
# T3 sequence (Q4KL25 whole entry partner): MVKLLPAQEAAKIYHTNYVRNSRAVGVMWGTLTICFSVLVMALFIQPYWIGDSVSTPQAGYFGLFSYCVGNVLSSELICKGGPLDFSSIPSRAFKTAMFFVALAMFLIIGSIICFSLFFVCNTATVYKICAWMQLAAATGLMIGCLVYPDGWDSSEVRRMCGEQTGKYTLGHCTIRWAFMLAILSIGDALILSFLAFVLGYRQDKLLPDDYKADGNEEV
# T3 sequence (Q8K467 29-153 partner): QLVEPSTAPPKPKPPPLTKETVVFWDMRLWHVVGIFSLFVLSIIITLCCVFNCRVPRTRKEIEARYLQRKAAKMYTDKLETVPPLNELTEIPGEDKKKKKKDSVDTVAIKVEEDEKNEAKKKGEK
# T3 sequence (Q9Z309 whole entry partner): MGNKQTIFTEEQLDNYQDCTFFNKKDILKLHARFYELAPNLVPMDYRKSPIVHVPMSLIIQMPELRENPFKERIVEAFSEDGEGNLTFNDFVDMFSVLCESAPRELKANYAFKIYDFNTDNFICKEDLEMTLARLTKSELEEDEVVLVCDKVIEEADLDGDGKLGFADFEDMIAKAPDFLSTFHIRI
# TMC1-M412C [4] = molecular target: T3, TMC1-M412C; design: method as in Pan et al., 2018; details: MTSET treatment of M412C; ref Pan et al., 2018; cited from earlier work
smiles,measurement,setting,value
"C[N+](C)(C)CCSS(C)(=O)=O.[Br-] [MTSET, 2-(trimethylammonium)ethyl methanethiosulfonate, bromide]",amplitude of the background current after MTSET treatment,[1],-23.6585 and -22.824 and -11.63 and -11.1296
same,amplitude of the background current after MTSET treatment,[2],-25.3123 and -14.3715 and -14.7309 and -35.792
same,effect on the MET current amplitude,TMC1-M412C [3],did change the MET current amplitude
same,effect on the MET current,TMC1-M412C [4],reduced the MET current
